Assay results published in article PMC9618137, “Bacterial catabolism of acetovanillone, a lignin-derived compound” (Proceedings of the National Academy of Sciences of the …, 2022).

Test system: T1, HpeCBA
T1 construct: gene hpeB; hpeCBA co-expressed in Rhodococcus jostii RHA1; untagged complex, ammonium sulfate and anion exchange; with Phosphophenylethanone carboxylase, biotin carboxylase; Phosphophenylethanone carboxylase, biotin carboxyl carrier protein
Assay: coupled spectrophotometric assay (pyruvate kinase / lactate dehydrogenase, NADH oxidation)
Assay type: biochemical, Rhodococcus rhodochrous
Conditions: 20 mM MOPS (I = 0.1 M), pH 7.5, 25 °C; ATP, Mg2+, HCO3-
Description: coupled spectrophotometric assay (pyruvate kinase / lactate dehydrogenase, NADH oxidation) on HpeCBA

SMILES | Km
CC(=O)c1ccc(OP(=O)(O)O)cc1 [PAP] | 69 µM
COc1cc(C(C)=O)ccc1OP(=O)(O)O [PAV] | 560 µM
